Earlier results on one sequence are cited in article PMC9475419 (RSC Advances, 2022).

Entries after “also recorded” stand apart in the source; their conditions may differ.

For data set [1] the following is noted: 15 Pep1 per AuNP (3.6 nm); cited from earlier work.
The conditions of data set [2]: cited from earlier work.

Take CGSTIYASYYESGHGC [Pep1]: in data set [1], the “suppression of non-specific binding of AuNPs by Pep1” value was “enough to suppress the non-specific binding surface of AuNPs; also recorded: could sufficiently suppress the non-specific binding of AuNPs”. In addition, the “structure and function of free peptide” value in data set [2] was “unstructured and non-functional”.
